Test results from article PMC2375353, “Effective treatment of experimental U-87MG human glioblastoma in nude mice with a targeted cytotoxic bombesin analogue, AN-215” (British Journal of Cancer, 2002).
Values joined by “and” are separate entries in the source; they are usually repeats but may differ in a detail not shown here. Equal values may be shown once.

Assays:
[1] = General toxicity (mortality, body weight); assay type: in vivo, nude mice; details: for Final BW: mean±s.e.
Protocol: (§1) Experiment 1 was started when tumours had grown to approximately 40 mm^3 in volume. Animals were randomly divided into three treatment groups: group 1(10 mice), control, which received vehicle solution; group 2 (10 mice), injected with cytotoxic radical AN-201; group 3 (11 mice), given cytotoxic BN analogue AN-215. Cytotoxic compounds were injected through the jugular vein at a dose of 150 nmol kg^−1 of body weight (BW) on days 1, 8, 15 and 22. Tumour volume (length×width×height×0.5236) and BW were measured twice a week. The experiment was terminated on day 29. […] Tumours were excised and weighed. Tumour specimens were snap-frozen and stored at −70°C until extraction of RNA for reverse transcription-polymerase chain reaction (RT–PCR). Tumour volume doubling time was calculated between day 1 and 29 using the formula: […]
Experiment 2 was started when U-87MG tumours had grown to 70–84 mm^3 in volume. The animals were divided into the following treatment groups: group 1 (10 mice), control, vehicle solution; group 2 (10 mice), analogue AN-215; group 3 (five mice), unconjugated mixture of the cytotoxic radical AN-201 and BN antagonist RC-3095. All compounds were injected i.v. at 150 nmol kg^−1 of BW on days 1, 10, and 17. In addition, one group of tumour-bearing mice received an i.v. injection of 200 μg of BN antagonist RC-3095 15 min before each administration of AN-215 at a dose of 150 nmol kg^−1 of BW on days 1, 10 and 17 as in the case of group 2. The experiment was terminated on day 20 as described above.
General toxicity was evaluated on the basis of mortality rate and changes in BW. Toxicity to BN receptor-positive organs was assessed by measuring gastrin release in response to GRP stimulation ([Plonowski et al, 2000]). At the end of experiment 1, blood samples were collected 5 min after i.v. injection of 2 μg of GRP(14-27) dissolved in 100 μl of 5% mannitol. Serum gastrin concentrations were measured by double-antibody radioimmunoassay with a kit provided by ICN Pharmaceuticals Diagnostic Division (Orangeburg, NY, USA). The interassay variation was 10.6%, and the intraassay variation was 6%.

[2] = system: U-87MG human glioblastoma xenografted into nude mice; test: Experiment 1: growth of s.c. U-87MG xenografts in nude mice; assay type: in vivo, human tumour in male athymic nude mice; details: for Final tumour volume / Final tumour volume, % inhibition / Tumour weight, % inhibition / Tumour doubling time: 150 nmol kg^-1 i.v. days 1, 8, 15, 22; for Final tumour volume / Final tumour volume, % inhibition / Tumour weight, % inhibition: day 29; for Final tumour volume / Tumour doubling time: mean±s.e.; for Final tumour volume: control 3201.5±375.7; for Final tumour volume, % inhibition / Tumour weight, % inhibition: vs control; for Antitumour effect / Tumour doubling time: experiment 1; for Antitumour effect: 150 nmol kg^-1 i.v.; for Tumour doubling time: day 1 to 29, control 4.5±0.2
Protocol: Human glioblastoma cell line U-87MG was obtained from American Type Culture Collection (Manassas, VA, USA) and cultured as described ([Pinski et al, 1994]). Male athymic (Ncr nu/nu) nude mice, approximately 6-weeks-old on arrival, were obtained from the National Cancer Institute (Frederick Cancer Research and Development Center, Frederick, MD, USA), and housed in laminar air-flow cabinets under pathogen-free conditions with a 12 h light/12 h dark schedule, and fed autoclaved standard chow and water ad libitum. Xenografts were initiated by s.c. injection of 12×10^6 U-87MG cells into the right flanks of five male nude mice. Tumours resulting after 2 weeks were aseptically dissected, mechanically minced, and 3-mm^3 pieces of tumour tissue were transplanted s.c. with a trocar needle. The take rate was 100%. All experiments were performed in accordance with institutional ethical guidelines of animal care and were essentially in agreement with [UKCCCR guidelines (1998)] for the welfare of animals in experimental neoplasia.
as §1
as described by [Smolev et al (1977)].
Data are expressed as mean±s.e. Differences between mean values were evaluated by two-tailed Student's t-test, P<0.05 being considered significant.

[3] = parameters: method as in 2 sources, one per row (each row's own in cited_ref): ref Nagy et al, 1997 ||| ref not printed in the sentence (AN-201: Nagy et al, 1996); details: cited from earlier work
Source text: (§2) Current treatment options for malignant gliomas, including surgery, radiation, and chemotherapy, are of limited effectiveness, and novel therapeutic modalities must be explored. Targeting of antineoplastic agents to cancer cells by linking them to a ligand with high affinity for tumour cells should improve tumour growth inhibition and decrease peripheral toxicity ([Schally and Nagy, 1999]). The presence of high affinity receptors for bombesin (BN)-like peptides on a wide variety of tumours prompted us to employ some of our powerful BN/gastrin releasing peptide (GRP) antagonists as carrier mole ... || Recently, we developed a series of targeted cytotoxic conjugates based on analogues of peptide hormones such as luteinizing hormone-releasing hormone(LH-RH), somatostatin and BN/GRP, for which high affinity receptors are expressed on a variety of tumours ([Schally and Nagy, 1999]; [Nagy and Schally, 2001]).

[4] = cited from earlier work; for BW change: accompanying WBC decrease, nude mice bearing PC-3; for Reduction in WBC count: after the final injection, nude mice bearing PC-3 human prostate cancers
Protocol: In our previous study ([Plonowski et al, 2000]) we reported that after the final injection of AN-215, AN-201 or the mixture of AN-201 and […] there was an approximate 50% reduction in WBC count in nude mice bearing PC-3 human prostate cancers. […] In the present study no measurements of WBC were carried out. Instead, the assessment of toxicity was based on changes in BW and mortality which indicated, in both experiments, that targeted cytotoxic BN analogue AN-215 is not toxic (Table 2). In experiment 1, two of 10 animals (20%) ...

[5] = system: H-69 human small-cell lung carcinoma; details: ref Kiaris et al, 1999a; cited from earlier work
Source text: as §2, with “...” for “... || Recently, we developed a series of targeted cytotoxic conjugates based on analogues of peptide hormones such as luteinizing hormone-releasing hormone(LH-RH), somatostatin and BN/GRP, for which high affinity receptors are expressed on a variety of tumours ([Schally and Nagy, 1999]; [Nagy and Schally, 2001]).”

[6] = system: BN receptors on Swiss 3T3 fibroblasts; details: ref Nagy et al, 1997; cited from earlier work
Source text: as §2, with “...” for “... || Recently, we developed a series of targeted cytotoxic conjugates based on analogues of peptide hormones such as luteinizing hormone-releasing hormone(LH-RH), somatostatin and BN/GRP, for which high affinity receptors are expressed on a variety of tumours ([Schally and Nagy, 1999]; [Nagy and Schally, 2001]).”

[7] = system: PC-3 human androgen-independent prostate cancer; details: ref Plonowski et al, 2000; cited from earlier work
Source text: as §2, with “...” for “... || Recently, we developed a series of targeted cytotoxic conjugates based on analogues of peptide hormones such as luteinizing hormone-releasing hormone(LH-RH), somatostatin and BN/GRP, for which high affinity receptors are expressed on a variety of tumours ([Schally and Nagy, 1999]; [Nagy and Schally, 2001]).”

[8] = experiment 1, 150 nmol kg^-1 i.v. days 1, 8, 15, 22
[9] = experiment 1, 150 nmol kg^-1 i.v. days 1, 8, 15, 22, control 0/10
[10] = experiment 1, day 29, control 29.3±1.0

Molecule	Mortality, % of animals [1, 8] [%]	Mortality (number of dead animals/number of total) [1, 9]	Final BW [1, 10] [g]	Final tumour volume [2] [mm^3]	Final tumour volume, % inhibition [2] [%]	Tumour weight, % inhibition [2] [%]	Antitumour effect [2]	Tumour doubling time [2]	BW change ([4]; ref Plonowski et al, 2000)	Reduction in WBC count ([4]; ref Plonowski et al, 2000) [%]	also measured
COc1cccc2c1C(=O)c1c(O)c3c(c(O)c1C2=O)C[C@@](O)(C(=O)CO)C[C@@H]3O[C@H]1C[C@H](N2C=CCC2)[C@H](O)[C@H](C)O1 [AN-201, 2-pyrrolino-doxorubicin]	20	2/10	25.5 ± 0.8	2353.7±506.7	26	13.2	ineffective	5.9 ± 1.4 days	transient decrease in BW	~50	Potency relative to DOX (fold) ([3]; in vitro, ref not printed in the sentence (AN-201: Nagy et al, 1996)): 1000 times
Gln-Trp-Ala-Val-Gly-His-Leu-ψ(CH2-NH)-Leu-NH2 [AN-215]	9	1/11	25.4 ± 0.6	971.5±227.9	69.6	64.6	strong tumour growth inhibition	8.18±1.8 days and 8.2±1.8 days and 8.2±1.8^c days	transient decrease in BW	~50	Toxicity by BW and mortality ([1]; both experiments, 150 nmol kg^-1 i.v.): not toxic; Final BW, % of control ([1]; experiment 1, day 29): 87%; Mortality (number of dead animals/number of total) ([1]; experiment 2, 150 nmol kg^-1 i.v. days 1, 10, 17, control 1/10): 0/10; Toxicity-related deaths ([1]; experiment 2, AN-215 150 nmol kg^-1 without pretreatment): no toxicity-related deaths; Mortality, % of animals, after RC-3095 pretreatment ([1]; experiment 2, RC-3095 200 μg i.v. about 15 min before AN-215): 11%; Final BW, % of control ([1]; experiment 2, day 20): 90%; Final BW ([1]; experiment 2, day 20, control 30.2±0.8): 27.3 ± 0.9 g; Inhibition of H-69 human small-cell lung carcinoma [5]: effectively inhibit; Affinity to BN receptors [6]: high affinity; Inhibition of PC-3 human androgen-independent prostate cancer [7]: effectively inhibit; Antiproliferative effect ([3]; ref Nagy et al, 1997): retains the antiproliferative effect of its cytotoxic moiety; Tolerance with carboxylesterase inhibited ([4]; nude mice, ref Nagy et al, 2000, Plonowski et al): significantly higher tolerance; Efficacy with suppressed esterase activity ([4]; nude mice, ref Plonowski et al, 2000): highly efficacious
